We go through 25 molecules from patent US8017612B2, “Piperazine compound and use thereof as a HCV polymerase inhibitor” (priority 2006, dated 2011).

Experiment [1] deals with T1, HCV polymerase (NS5B) type 1b (Hepatitis C virus genotype 1b, UniProt P26663).
T1 construct: a region encoding NS5B (J Virol 1991 March, 65(3), 1105-13, 544 amino acids after deletion of 47 amino acids on the C-terminal); 6xHis (C); made in house; host or cells: Escherichia coli
In words: Assay of enzyme (HCV polymerase) inhibitory activity, type 1b enzyme. It counts as biochemical, HCV BK strain (type 1b). The settings on record: HCV polymerase inhibitory activity (IC50), 1b, type 1b enzyme 0.5 μg/ml, 25° C., 60 min. The method, boiled down:
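His-tagged, C-terminally truncated NS5B (BK strain, 1b; 0.5 μg/ml) incubated with compound 60 min at 25 °C on 3′UTR-derived substrate RNA (5 μg/ml), 50 μM ATP/GTP/CTP, 2 μM UTP plus [3H]UTP, pH 7.5. Acid-precipitated RNA counted; IC50 from radioactivity with and without compound.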

The target of experiment [2] is T2, HCV polymerase (NS5B) type 1a (Hepatitis C virus genotype 1a, UniProt P26664).
T2 construct: made in house; host or cells: Escherichia coli (by the 'similar method' of the 1b enzyme)
Put plainly: Assay of enzyme (HCV polymerase) inhibitory activity, type 1a enzyme. The experiment is classed as biochemical, HCV type 1a (cloned from the blood of patients). Conditions: HCV polymerase inhibitory activity (IC50), 1a, type 1a enzyme 1.5 μg/ml, 25° C., 60 min. The method, boiled down: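 His-tagged NS5B, C-terminal 47 residues deleted, type 1a at 1.5 μg/ml, with 5 μg/ml HCV 3′UTR substrate RNA, 50 μM ATP/GTP/CTP, 2 μM UTP plus [3H]UTP, pH 7.5 Tris, 5 mM MgCl2; 60 min at 25° C. TCA-precipitated RNA counted by scintillation; IC50 from radioactivity with vs. without compound.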

pIC50: −log10 of the molar value. Counter-ions that a name gives are not always drawn.

`CC(=O)N1CCN(S(=O)(=O)c2ccc(N)cc2)C(C(=O)NCc2ccc(C(F)(F)F)cc2)C1` (centres unmarked) [Example 93, 4-acetyl-1-(4-amino-benzenesulfonyl)-piperazine-2-carboxylic acid 4-trifluoromethyl-benzylamide hydrochloride]: the negative logarithm of the IC50 (pIC50) in experiment [1] and in experiment [2] was under 6.00 throughout.
In the case of `COC(=O)CN1CCN(S(=O)(=O)c2ccc(I)cc2)C(C(=O)NCc2ccc(N(C)C)cc2)C1` (centres unmarked) [Example 94, [3-(4-dimethylamino-benzylcarbamoyl)-4-(4-iodo-benzenesulfonyl)-piperazin-1-yl]-acetic acid methyl ester], the pIC50 in experiment [1] and in experiment [2] was under 6.00 throughout.
Take `CN(C)CC(=O)N1CCN(S(=O)(=O)c2ccc(I)cc2)C(C(=O)NCc2ccc(N(C)C)cc2)C1` (centres unmarked) [Example 95, 4-(2-dimethylamino-acetyl)-1-(4-iodo-benzenesulfonyl)-piperazine-2-carboxylic acid 4-dimethylamino-benzylamide]: the pIC50 in experiment [1] and in experiment [2] was under 6.00 each time.
`CN(C)c1ccc(CNC(=O)C2CN(CC(=O)O)CCN2S(=O)(=O)c2ccc(I)cc2)cc1` (centres unmarked) [Example 96, [3-(4-dimethylamino-benzylcarbamoyl)-4-(4-iodo-benzenesulfonyl)-piperazin-1-yl]-acetic acid]: the pIC50 in experiment [1] and in experiment [2] was under 6.00 each time.
With `CCC(C)(C)c1ccc(S(=O)(=O)N2CCN(C(C)=O)CC2C(=O)NCc2ccc(C(F)(F)F)cc2)cc1` (centres unmarked) [Example 97, 4-acetyl-1-[4-(1,1-dimethyl-propyl)-benzenesulfonyl]-piperazine-2-carboxylic acid 4-trifluoromethyl-benzylamide], the pIC50 in experiment [1] and in experiment [2] was under 6.00 throughout.
For `CC(=O)N1CCN(S(=O)(=O)c2ccc(C(C)C)cc2)C(C(=O)NCc2ccc(NC(=O)C(C)(C)C)cc2)C1` (centres unmarked) [Example 98, 4-acetyl-1-(4-isopropyl-benzenesulfonyl)-piperazine-2-carboxylic acid 4-(2,2-dimethyl-propionylamino)-benzylamide], the pIC50 in experiment [1] and in experiment [2] was under 6.00 each time.
Regarding `CC(=O)N1CCN(S(=O)(=O)c2ccc(C(C)C)cc2)C(C(=O)NCc2ccc(C(=O)O)cc2)C1` (centres unmarked) [Example 99, 4-({[4-acetyl-1-(4-isopropyl-benzenesulfonyl)-piperazine-2-carbonyl]-amino}-methyl)-benzoic acid], the pIC50 in experiment [1] and in experiment [2] was under 6.00 in each case.
Regarding `CC(=O)N1CCN(S(=O)(=O)c2ccc(C(C)C)cc2)C(C(=O)NCc2ccc(Cl)c(Cl)c2)C1` (centres unmarked) [Example 100, 4-acetyl-1-(4-isopropyl-benzenesulfonyl)-piperazine-2-carboxylic acid 3,4-dichloro-benzylamide], the pIC50 in experiment [1] and in experiment [2] was under 6.00 in each case.
As for `CC(=O)N1CCN(S(=O)(=O)c2ccc(C(C)C)cc2)C(C(=O)NCc2ccc(Cl)cc2Cl)C1` (centres unmarked) [Example 101, 4-acetyl-1-(4-isopropyl-benzenesulfonyl)-piperazine-2-carboxylic acid 2,4-dichloro-benzylamide], the pIC50 in experiment [1] and in experiment [2] was under 6.00 in each case.
Turning to `CN(C)c1ccc(CNC(=O)C2CN(C(=O)CN3CCCCC3)CCN2S(=O)(=O)c2ccc(I)cc2)cc1` (centres unmarked) [Example 102, 1-(4-iodo-benzenesulfonyl)-4-(2-piperidin-1-yl-acetyl)-piperazine-2-carboxylic acid 4-dimethylamino-benzylamide], the pIC50 in experiment [1] and in experiment [2] was under 6.00 in each case.
Regarding `CC(C)c1ccc(S(=O)(=O)N2CCN(C3=NCCN3)CC2C(=O)NCc2ccc(C(F)(F)F)cc2)cc1` (centres unmarked) [Example 103, 4-(4,5-dihydro-1H-imidazol-2-yl)-1-(4-isopropyl-benzenesulfonyl)-piperazine-2-carboxylic acid 4-trifluoromethyl-benzylamide], the pIC50 in experiment [1] and in experiment [2] was under 6.00 throughout.
For the molecule `CN(C)c1ccc(CNC(=O)C2CN(C(=O)CN3CCOCC3)CCN2S(=O)(=O)c2ccc(I)cc2)cc1` (centres unmarked) [Example 104, 1-(4-iodo-benzenesulfonyl)-4-(2-morpholin-4-yl-acetyl)-piperazine-2-carboxylic acid 4-dimethylamino-benzylamide], the pIC50 in experiment [1] and in experiment [2] was under 6.00 in each case.
`CN(C)c1ccc(CNC(=O)C2CN(C(=O)CNCc3ccccc3)CCN2S(=O)(=O)c2ccc(I)cc2)cc1` (centres unmarked) [Example 105, 4-(2-benzylamino-acetyl)-1-(4-iodo-benzenesulfonyl)-piperazine-2-carboxylic acid 4-dimethylamino-benzylamide]: the pIC50 in experiment [1] and in experiment [2] was under 6.00 throughout.
As for `COC(=O)c1ccc(S(=O)(=O)N2CCN(C(C)=O)CC2C(=O)NCc2ccc(C(F)(F)F)cc2)cc1` (centres unmarked) [Example 106, 4-[4-acetyl-2-(4-trifluoromethyl-benzylcarbamoyl)-piperazine-1-sulfonyl]-benzoic acid methyl ester], the pIC50 in experiment [1] and in experiment [2] was under 6.00 each time.
In the case of `CC(=O)N1CCN(S(=O)(=O)c2ccc(C(=O)O)cc2)C(C(=O)NCc2ccc(C(F)(F)F)cc2)C1` (centres unmarked) [Example 107, 4-[4-acetyl-2-(4-trifluoromethyl-benzylcarbamoyl)-piperazine-1-sulfonyl]-benzoic acid], the pIC50 in experiment [1] and in experiment [2] was under 6.00 in each case.
`CC(=O)N1CCN(S(=O)(=O)c2ccc(C(C)C)cc2)C(C(=O)NCc2ccc(-c3cnn(C)c3)cc2)C1` (centres unmarked) [Example 108, 4-acetyl-1-(4-isopropyl-benzenesulfonyl)-piperazine-2-carboxylic acid 4-(1-methyl-1H-pyrazol-4-yl)-benzylamide]: the pIC50 in experiment [1] and in experiment [2] was under 6.00 each time.
`CC(=O)N1CCN(S(=O)(=O)c2ccc(C(C)C)cc2)C(C(=O)NCc2ccc(N3CCCCC3)cc2)C1` (centres unmarked) [Example 109, 4-acetyl-1-(4-isopropyl-benzenesulfonyl)-piperazine-2-carboxylic acid 4-piperidin-1-yl-benzylamide]: the pIC50 in experiment [1] and in experiment [2] was under 6.00 each time.
Take `CCCN(CCC)CC(=O)N1CCN(S(=O)(=O)c2ccc(I)cc2)C(C(=O)NCc2ccc(N(C)C)cc2)C1` (centres unmarked) [Example 110, 4-(2-dipropylamino-acetyl)-1-(4-iodo-benzenesulfonyl)-piperazine-2-carboxylic acid 4-dimethylamino-benzylamide]: the pIC50 in experiment [1] and in experiment [2] was under 6.00 each time.
Turning to `CC(C)c1ccc(S(=O)(=O)N2CCN(C(N)=S)CC2C(=O)NCc2ccc(C(F)(F)F)cc2)cc1` (centres unmarked) [Example 111, 1-(4-isopropyl-benzenesulfonyl)-4-thiocarbamoyl-piperazine-2-carboxylic acid 4-trifluoromethyl-benzylamide], the pIC50 in experiment [1] and in experiment [2] was under 6.00 in each case.
Regarding `CC(C)c1ccc(S(=O)(=O)N2CCN(C3=NCCS3)CC2C(=O)NCc2ccc(C(F)(F)F)cc2)cc1` (centres unmarked) [Example 112, 4-(4,5-dihydro-thiazol-2-yl)-1-(4-isopropyl-benzenesulfonyl)-piperazine-2-carboxylic acid 4-trifluoromethyl-benzylamide], the pIC50 in experiment [1] and in experiment [2] was under 6.00 throughout.
`CN(C)c1ccc(CNC(=O)C2CN(C(=O)CCN3CCOCC3)CCN2S(=O)(=O)c2ccc(I)cc2)cc1` (centres unmarked) [Example 113, 1-(4-iodo-benzenesulfonyl)-4-(3-morpholin-4-yl-propionyl)-piperazine-2-carboxylic acid 4-dimethylamino-benzylamide]: the pIC50 in experiment [1] and in experiment [2] was under 6.00 in each case.
Turning to `CCCN(CCC)CCC(=O)N1CCN(S(=O)(=O)c2ccc(I)cc2)C(C(=O)NCc2ccc(N(C)C)cc2)C1` (centres unmarked) [Example 114, 4-(3-dipropylamino-propionyl)-1-(4-iodo-benzenesulfonyl)-piperazine-2-carboxylic acid 4-dimethylamino-benzylamide], the pIC50 in experiment [1] and in experiment [2] was under 6.00 throughout.
Take `Cc1csc(N2CCN(S(=O)(=O)c3ccc(C(C)C)cc3)C(C(=O)NCc3ccc(C(F)(F)F)cc3)C2)n1` (centres unmarked) [Example 115, 1-(4-isopropyl-benzenesulfonyl)-4-(4-methyl-thiazol-2-yl)-piperazine-2-carboxylic acid 4-trifluoromethyl-benzylamide]: the pIC50 in experiment [1] and in experiment [2] was under 6.00 in each case.
For the molecule `CC(=O)N1CCN(S(=O)(=O)c2ccc(C(C)C)cc2)C(C(=O)NCc2ccc(-c3ccc(Cl)cc3)cc2)C1` (centres unmarked) [Example 116, 4-acetyl-1-(4-isopropyl-benzenesulfonyl)-piperazine-2-carboxylic acid (4′-chloro-biphenyl-4-ylmethyl)-amide], the pIC50 in experiment [1] and in experiment [2] was under 6.00 each time.
As for `CC(=O)N1CCN(S(=O)(=O)c2ccc(C(C)C)cc2)C(C(=O)NCc2ccc(C(C)C)cc2)C1` (centres unmarked) [Example 117, 4-acetyl-1-(4-isopropyl-benzenesulfonyl)-piperazine-2-carboxylic acid 4-isopropyl-benzylamide], the pIC50 in experiment [1] and in experiment [2] was 6.00 to 7.00 in each case.
